Target: T1, integrin VLA-4, expressed on the Jurkat J6 (human lymphoblast cell line) cell membrane with VCAM-1 (Homo sapiens, UniProt P05556+P13612)
T1 construct: integrin VLA-4, expressed on the Jurkat J6 (human lymphoblast cell line) cell membrane; endogenous in cells; host or cells: Jurkat J6 cells (integrin). zzVCAM-1 was made in house in Drosophila melanogaster S2 cells
Experiment: Jurkat J6/VCAM-1 adhesion assay
Type: cell-based
Settings: Jurkat J6 cell adhesion to VCAM-1, 1 mM MnCl2; mean of n experiments
Experimental: (1) Jurkat J6/VCAM-1 Adhesion Assay
This assay was used to investigate the interaction of the integrin VLA-4, expressed on the Jurkat J6 (human lymphoblast cell line) cell membrane with VCAM-1. Polystyrene 96-well microtitre plates were coated with human immunoglobulin G (IgG; Sigma Chemicals, UK, Product No. 14506) at a concentration of 0.05 mg ml^−1 in bicarbonate buffer (36 mM NaHCO3 and 22 mM Na2CO3, prepared in Dulbecco's phosphate buffered saline at pH 9.8 (PBS); Sigma Chemicals, UK, Product No. 14190-094) for 2 hours at 37° C. This solution was then aspirated and the plates were washed twice with PBS.
VCAM-1 was prepared by cloning its constituent seven domains into a Drosophila expression system with a zz (Protein A) tag. This zzVCAM-1 was then expressed from Drosophila melanogaster S2 cell culture, induced with copper. Protease inhibitors were added and the culture supernatant was clarified either by filtration through a 0.2 μm filter or by centrifugation. The zzVCAM-1 was then purified from this clarified medium using an IgG agarose column, equilibrated with either 20 mM sodium phosphate pH 7.2 alone or in the presence of 0.5M sodium chloride. Elution of zzVCAM-1 from the column was mediated using 3M ammonium thiocyanate, which was subsequently removed using a G25 desalting column, equilibrated with 20 mM sodium phosphate, pH 7.2. The purified zzVCAM-1 was then concentrated to a small volume (Amicon stirred cell concentrators) until a concentration of 62.5 ng ml^−1 was obtained, calculated using the extinction coefficient value.
This solution of zzVCAM-1 was then incubated overnight at 4° C. in the IgG coated microtitre plates with 3% bovine serum albumin (BSA) in PBS, followed by aspiration and two further washes with PBS. A concentration of the Jurkat J6 cells (6×10^6 cels ml^−1), grown in cell media RPMI 1640 (HyClone Ltd, Product No. B-9106-L) supplemented with 10% heat inactivated fetal calf serum (FCS; Gibco BRL, Product No. 10099-075) and 2 mM L-glutamine, were labelled with 10 μM of the fluorescent dye, 2′, 7′-bis(2-carboxyethyl)-5-(e6)-carboxyfluorescein acetoxymethyl ester (BCECF-AM; Molecular Probes Inc, Product No. B-1150) at 37° C. for 10 minutes. The excess dye was then removed by centrifugation at 500×g for 5 minutes and the cells were resuspended at a concentration of 1.2×10^7 cells ml^−1 in Hank's balanced salt solution (HBSS; Gibco BRL, Product No. 14190-094).
Equal volumes of compounds (dissolved in an appropriate solvent and diluted in HBSS containing 1 mM MnCl2) and the labelled Jurkat J6 cells, were added to the VCAM-1 coated plates and adhesion was allowed to proceed for 30 minutes at 37° C. Non, or loosely adhered cells, were removed by inversion of the plate and blotted with tissue paper. Two washes with PBS and further blotting were then performed, before the addition of 2% detergent (Triton-X®; Sigma Chemicals UK, Product No. X100). Counting was undertaken in a Wallac Viktor™ Fluorimeter, where low fluorescence values were indicative of compounds which had inhibited adhesion. All samples were assayed in singlicate and the following four parameter curve fit, shown by Equation (I) was applied: [formula]
Where a is the minimum, b is the Hill slope, c is the IC50 and d is the maximum. (Maximum and minimum values are those compared to adhesion in the absence of compound and in the presence of the dipotassium salt of 2 mM EDTA; Sigma Chemicals, UK, Product No. ED2P). Data is presented as the mean pIC50 with the standard error of the mean of n experiments.

T1 sequence (P13612 34-1032): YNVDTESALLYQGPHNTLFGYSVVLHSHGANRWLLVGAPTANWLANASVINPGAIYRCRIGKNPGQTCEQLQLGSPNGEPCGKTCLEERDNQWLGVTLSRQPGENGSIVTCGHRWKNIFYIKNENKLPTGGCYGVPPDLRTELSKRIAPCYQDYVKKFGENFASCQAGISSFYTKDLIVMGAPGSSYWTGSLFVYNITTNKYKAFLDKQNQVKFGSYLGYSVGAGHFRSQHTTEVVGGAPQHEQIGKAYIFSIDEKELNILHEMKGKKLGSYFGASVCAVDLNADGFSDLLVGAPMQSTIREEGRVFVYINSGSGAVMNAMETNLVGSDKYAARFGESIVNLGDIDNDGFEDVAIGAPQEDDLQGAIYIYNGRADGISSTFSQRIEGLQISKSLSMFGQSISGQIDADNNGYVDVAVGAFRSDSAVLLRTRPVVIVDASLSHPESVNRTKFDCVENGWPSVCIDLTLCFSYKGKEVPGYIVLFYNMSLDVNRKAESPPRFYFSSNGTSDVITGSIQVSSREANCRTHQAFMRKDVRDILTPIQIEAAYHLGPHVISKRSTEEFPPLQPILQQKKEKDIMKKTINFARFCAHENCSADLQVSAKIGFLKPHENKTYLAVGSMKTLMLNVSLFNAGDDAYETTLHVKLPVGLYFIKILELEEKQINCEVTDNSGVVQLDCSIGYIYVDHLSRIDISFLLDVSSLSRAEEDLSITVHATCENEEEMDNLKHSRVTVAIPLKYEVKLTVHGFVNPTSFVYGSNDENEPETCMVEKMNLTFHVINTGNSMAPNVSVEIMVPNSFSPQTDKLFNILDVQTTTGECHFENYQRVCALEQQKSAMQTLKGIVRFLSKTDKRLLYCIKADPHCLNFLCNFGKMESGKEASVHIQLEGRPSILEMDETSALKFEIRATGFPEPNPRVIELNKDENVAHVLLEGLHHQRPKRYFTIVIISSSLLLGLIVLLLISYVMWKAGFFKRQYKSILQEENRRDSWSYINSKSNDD
T1 sequence (P05556 21-798): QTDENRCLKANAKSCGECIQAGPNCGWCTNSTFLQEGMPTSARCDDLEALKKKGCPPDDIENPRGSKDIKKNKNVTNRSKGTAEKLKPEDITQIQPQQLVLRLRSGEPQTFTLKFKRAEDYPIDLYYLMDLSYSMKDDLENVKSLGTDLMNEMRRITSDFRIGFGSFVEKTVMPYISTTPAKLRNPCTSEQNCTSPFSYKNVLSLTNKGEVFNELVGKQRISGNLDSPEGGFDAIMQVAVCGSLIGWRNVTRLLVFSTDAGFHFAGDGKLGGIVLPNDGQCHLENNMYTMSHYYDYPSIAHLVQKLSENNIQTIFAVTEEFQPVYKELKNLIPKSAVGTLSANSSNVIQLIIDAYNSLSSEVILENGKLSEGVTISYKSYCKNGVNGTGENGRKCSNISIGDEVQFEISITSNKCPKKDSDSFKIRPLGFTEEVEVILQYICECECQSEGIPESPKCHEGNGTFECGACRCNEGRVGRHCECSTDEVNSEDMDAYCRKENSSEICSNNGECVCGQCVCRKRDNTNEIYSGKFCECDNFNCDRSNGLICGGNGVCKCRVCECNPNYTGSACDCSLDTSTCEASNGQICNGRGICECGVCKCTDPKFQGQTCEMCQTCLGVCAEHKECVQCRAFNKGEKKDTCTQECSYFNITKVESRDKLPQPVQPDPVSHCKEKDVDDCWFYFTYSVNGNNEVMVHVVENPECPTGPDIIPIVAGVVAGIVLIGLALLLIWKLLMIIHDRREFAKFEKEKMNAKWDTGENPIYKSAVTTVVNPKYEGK

SMILES | IC50 [nM]
CC(C)C[C@H](NC(=O)COc1ccccc1C(=O)c1ccccc1)C(=O)N[C@@H](Cc1ccc(OC(=O)N2CCC(NC(=O)Cc3ccccc3)CC2)cc1)C(=O)O [Example 1, (2S)-2-[((2S)-2-{[2-(2-Benzoylphenoxy)acetyl]amino}-4-methylpentanoyl)amino]-3-{4-[({4-[(2-phenylacetyl)amino]-1-piperidinyl}carbonyl)oxy]phenyl}propanoic acid] | 13.2
CC(C)C[C@H](NC(=O)COc1cc2ccccc2cc1C(=O)N1CCCCC1)C(=O)N[C@@H](Cc1ccc(OC(=O)N2CCC(NC(=O)Cc3ccccc3)CC2)cc1)C(=O)O [Example 2, (2S)-2-({(2S)-4-Methyl-2-[(2-{[3-(1-piperidinylcarbonyl)-2-naphthyl]oxy}acetyl)amino]pentanoyl}amino)-3-{4-[({4-[(2-phenylacetyl)amino]-1-piperidinyl}carbonyl)oxy]phenyl}propanoic acid] | 9.33
CC(C)C[C@H](NC(=O)COc1ccc(C(=O)N2CCCCC2)cc1)C(=O)N[C@@H](Cc1ccc(OC(=O)N2CCC(NC(=O)C(C3CCCCC3)C3CCCCC3)CC2)cc1)C(=O)O [Example 3, (2S)-3-{4-[({4-[(2,2-Dicyclohexylacetyl)amino]-1-piperidinyl}carbonyl)oxy]phenyl}-2-{[(2S)-4-methyl-2-({2-[4-(1-piperidinylcarbonyl)phenoxy]acetyl}amino)pentanoyl]amino}propanoic acid] | 41.7
CC(C)C[C@H](NC(=O)COc1ccc(C(=O)N2CCCCC2)cc1)C(=O)N[C@@H](Cc1ccc(OC(=O)N2CCOCC2)cc1)C(=O)O [Example 4, (2S)-2-{[(2S)-4-Methyl-2-({2-[4-(1-piperidinylcarbonyl)phenoxy]acetyl}amino)pentanoyl]amino}-3-{4-[(4-morpholinylcarbonyl)oxy]phenyl}propanoic acid] | 16.6
CC(C)C[C@H](NC(=O)COc1ccc(C(=O)N2CCCCC2)cc1)C(=O)N[C@@H](Cc1ccc(OC(=O)N2CCC(C(N)=O)CC2)cc1)C(=O)O [Example 5, (2S)-3-[4-({[4-(Aminocarbonyl)-1-piperidinyl]carbonyl}oxy)phenyl]-2-{[(2S)-4-methyl-2-({2-[4-(1-piperidinylcarbonyl)phenoxy]acetyl}amino)pentanoyl]amino}propanoic acid] | 7.76
CC(C)C[C@H](NC(=O)COc1ccccc1C(=O)c1ccccc1)C(=O)N[C@@H](Cc1ccc(OC(=O)N2CCC(C(N)=O)CC2)cc1)C(=O)O [Example 6, (2S)-3-[4-({[4-(Aminocarbonyl)-1-piperidinyl]carbonyl}oxy)phenyl]-2-[((2S)-2-{[2-(2-benzoylphenoxy)acetyl]amino}-4-methylpentanoyl)amino]propanoic acid] | 5.62
CC(C)C[C@H](NC(=O)COc1ccc(C(N)=O)cc1)C(=O)N[C@@H](Cc1ccc(OC(=O)N2CCC(C(N)=O)CC2)cc1)C(=O)O [Example 7, (2S)-2-{[(2S)-2-({2-[4-(Aminocarbonyl)phenoxy]acetyl}amino)-4-methylpentanoyl]amino}-3-[4-({[4-(aminocarbonyl)-1-piperidinyl]carbonyl}oxy)phenyl]propanoic acid] | 2.63
CC(C)C[C@H](NC(=O)COc1ccccc1I)C(=O)N[C@@H](Cc1ccc(OC(=O)N2CCC(NC(=O)CC3CCCCC3)CC2)cc1)C(=O)O [Example 8, (2S)-3-{4-[({4-[(2-Cyclohexylacetyl)amino]-1-piperidinyl}carbonyl)oxy]phenyl}-2-[((2S)-2-{[2-(2-iodophenoxy)acetyl]amino}-4-methylpentanoyl)amino]propanoic acid] | 42.7
CC(C)C[C@H](NC(=O)COc1ccccc1I)C(=O)N[C@@H](Cc1ccc(OC(=O)N2CCC(NC(=O)C(C3CCCCC3)C3CCCCC3)CC2)cc1)C(=O)O [Example 9, (2S)-3-{4-[({4-[(2,2-Dicyclohexylacetyl)amino]-1-piperidinyl}carbonyl)oxy]phenyl}-2-[((2S)-2-{[2-(2-iodophenoxy)acetyl]amino}-4-methylpentanoyl)amino]propanoic acid] | 26.3
CC(C)C[C@H](NC(=O)c1cccc2c1oc1ccccc12)C(=O)N[C@@H](Cc1ccc(OC(=O)N2CCOCC2)cc1)C(=O)O [Example 10, (2S)-2-({(2S)-2-[(Dibenzo[b,d]furan-4-ylcarbonyl)amino]-4-methylpentanoyl}amino)-3-{4-[(4-morpholinylcarbonyl)oxy]phenyl}propanoic acid] | 8.32
CC(C)C[C@H](NC(=O)c1cccc2c1oc1ccccc12)C(=O)N[C@@H](Cc1ccc(OC(=O)N2CCN(C(=O)c3ccco3)CC2)cc1)C(=O)O [Example 11, (2S)-2-({(2S)-2-[(Dibenzo[b,d]furan-4-ylcarbonyl)amino]-4-methylpentanoyl}amino)-3-[4-({[4-(2-furoyl)-1-piperazinyl]carbonyl}oxy)phenyl]propanoic acid] | 8.32
CC(C)C[C@H](NC(=O)c1cccc2c1oc1ccccc12)C(=O)N[C@@H](Cc1ccc(OC(=O)N2CCN(C(=O)c3ccccc3)CC2)cc1)C(=O)O [Example 12, (2S)-3-(4-{[(4-Benzoyl-1-piperazinyl)carbonyl]oxy}phenyl)-2-({(2S)-2-[(dibenzo[b,d]furan-4-ylcarbonyl)amino]-4-methylpentanoyl}amino)propanoic acid] | 11
CC(C)C[C@H](NC(=O)c1cccc2c1oc1ccccc12)C(=O)N[C@@H](Cc1ccc(OC(=O)N2CCC(NC(=O)Cc3ccccc3)CC2)cc1)C(=O)O [Example 13, (2S)-2-({(2S)-2-[(Dibenzo[b,d]furan-4-ylcarbonyl)amino]-4-methylpentanoyl}amino)-3-{4-[({4-[(2-phenylacetyl)amino]-1-piperidinyl}carbonyl)oxy]phenyl}propanoic acid] | 25.7
CC(C)C[C@H](NC(=O)COc1ccccc1I)C(=O)N[C@@H](Cc1ccc(OC(=O)N2CCC(NC(=O)Cc3ccccc3)CC2)cc1)C(=O)O [Example 14, (2S)-2-[((2S)-2-{[2-(2-Iodophenoxy)acetyl]amino}-4-methylpentanoyl)amino]-3-{4-[({4-[(2-phenylacetyl)amino]-1-piperidinyl}carbonyl)oxy]phenyl}propanoic acid] | 16.6
CC(=O)N1CCN(C(=O)Oc2ccc(C[C@H](NC(=O)[C@H](CC(C)C)NC(=O)COc3ccccc3I)C(=O)O)cc2)CC1 [Example 15, (2S)-3-(4-{[(4-Acetyl-1-piperazinyl)carbonyl]oxy}phenyl)-2-[((2S)-2-{[2-(2-iodophenoxy)acetyl]amino}-4-methylpentanoyl)amino]propanoic acid] | 2.69
CC(=O)N1CCN(C(=O)Oc2ccc(C[C@H](NC(=O)[C@H](CC(C)C)NC(=O)c3cccc4c3oc3ccccc34)C(=O)O)cc2)CC1 [Example 18, (2S)-3-(4-{[(4-Acetyl-1-piperazinyl)carbonyl]oxy}phenyl)-2-({(2S)-2-[(dibenzo[b,d]furan-4-ylcarbonyl)amino]-4-methylpentanoyl}amino)propanoic acid] | 3.72
CC(C)C[C@H](NC(=O)COc1ccccc1I)C(=O)N[C@@H](Cc1ccc(OC(=O)N2CCN(C(=O)c3ccccc3)CC2)cc1)C(=O)O [Example 19, (2S)-3-(4-{[(4-Benzoyl-1-piperazinyl)carbonyl]oxy}phenyl)-2-[((2S)-2-{[2-(2-iodophenoxy)acetyl]amino}-4-methylpentanoyl)amino]propanoic acid] | 7.59
CC(C)C[C@H](NC(=O)COc1ccc(Cl)cc1Cl)C(=O)N[C@@H](Cc1ccc(OC(=O)N2CCN(C(=O)c3ccccc3)CC2)cc1)C(=O)O [Example 22, (2S)-3-(4-{[(4-Benzoyl-1-piperazinyl)carbonyl]oxy}phenyl)-2-[((2S)-2-{[2-(2,4-dichlorophenoxy)acetyl]amino}-4-methylpentanoyl)amino]propanoic acid] | 22.4

— patent US6867192B1, “Compounds useful in the treatment of inflammatory diseases” (priority 1998, dated 2005)
